Several values for one entry are separate records, joined by “and”; a condition that tells them apart may be missing. Equal entries are not always repeated.
Experiments:
[1] = test system: protease from Conidiobolus brefeldianus MTCC 5185; assay: Stability of protease in presence of organic solvents at 28° C.; assay type: physicochemical; parameters: key to residual activity of protease, 0 h / residual activity of protease, 12 h: % of initial activity with respective solvent (initial = 100%); conditions: crude protease, 20% (v/v) solvent
Method: This example illustrates the effect of water miscible as well as water immiscible organic solvents on stability of crude protease at 28° C. […] Samples were removed at different time intervals and residual activity was estimated. Sample without organic solvent served as control. Initial activity with respective solvents was taken as 100% (Table 17). […] (Table 17).

[2] = test system: protease from Conidiobolus brefeldianus MTCC 5185; assay: Stability of protease in presence of organic solvents at 37° C.; assay type: physicochemical; conditions: 20% (v/v) solvent
Method: This example illustrates the effect of water miscible as well as water immiscible organic solvents on stability of crude protease at 37° C. […] Samples were removed at different time intervals and residual activity was estimated. Sample without organic solvent served as control.

[3] = test system: protease of Conidiobolus brefeldianus MTCC 5185; assay: Effect of inhibitors on protease activity (PMSF, EDTA, iodoacetate, DMSO); assay type: biochemical; conditions: pre-incubated 1 h, pH 8.0; 20 mM EDTA, 10 mM Iodoacetate, 1 mM PMSF (in DMSO), DMSO
Source text: This example illustrates the effect of inhibitors on protease activity of Conidiobolus brefeldianus MTCC 5185. Following inhibitors were studied: phenylmethylsulfonyl fluoride (PMSF), ethylene-diaminetetraacetic acid (EDTA), iodoacetic acid, and dimeth ylsulphoxide (DMSO). The crude culture filtrate grown as described in example 3 was concentrated by ultra-filtration on PM-10 and YM-3 membranes as described in example 27 and used for inhibition studies. Both the protease preparations were pre-incubated in 100 mM Tris-HCl buffer (pH 8.0) with each inhibitor for 1 h and the residual protease activity was measured at 50° C., pH 9.0. Protease without inhibitor served as control.

[4] = test system: protease of Conidiobolus brefeldianus MTCC 5185; assay: Effect of inhibitors on protease activity (TPCK, TLCK, Benzamidine); assay type: biochemical; conditions: 5 mM inhibitor, crude protease pre-incubated 30 min, pH 8.0
Method: This example illustrates the effect of inhibitors on protease activity of Conidiobolus brefeldianus MTCC 5185. Following inhibitors were studied: N-tosyl-L-phenylalanine chloromethyl ketone (TPCK), N-tosyl-L-lysine chloromethyl ketone (TLCK), and Benzamidine. Crude protease was pre-incubated with each inhibitor in 100 mM Tris-HCl buffer (pH 8.0) for 30 min and the residual protease activity was measured 50° C., pH 9.0. Protease without inhibitor served as control.

residual activity of protease, 0 h ([1]; 0 h)	residual activity of protease, 5 h ([1]; 5 h)	residual activity of protease, 12 h ([1]; 12 h)	Residual Activity (%) of protease, 30 min ([2]; pH 7, 30 min) [%]	Residual Activity (%) of protease, 60 min ([2]; pH 7, 60 min) [%]	Residual Activity (%) of protease, 120 min ([2]; pH 7, 120 min) [%]	Residual Activity (%) of protease, 240 min ([2]; pH 7, 240 min) [%]	Residual Activity (%) of protease, 0 ([2]; crude protease, pH 7, 0 min) [%]	Compound	Inhibition (%) PM-10 Retentate [3] [%]	Inhibition (%) YM-3 Retentate [3] [%]	Inhibition (%) [4]
100	98.12	54.55	69.48	68.94	48.70	28.53	100	C[S+](C)[O-] [DMSO, dimethylsulphoxide]	3.02	1.37	–
–	–	–	–	–	–	–	–	N-tosyl-L-lysine chloromethyl ketone [TLCK]	–	–	29% and 29.22%
–	–	–	–	–	–	–	–	N-tosyl-L-phenylalanine chloromethyl ketone [TPCK]	–	–	9% and 9.02%

Source: patent publication US20130115671A1, “ENZYMES FROM CONIDIOBOLUS BREFELDIANUS AND PROCESS FOR PREPARATION THEREOF” (Council of Scientific and Industrial Research, priority 2010, published 2013)
